Reference: patent US4309407A, “Alkenyl-substituted thienylalkanecarboxylic acids and derivatives thereof” (A. Nattermann & Cie. GmbH, priority 1979, dated 1982)

Experiments:
rats = experiment: Ulcer-Inducing Effect on rats; assay type: in vivo; details: rat
Excerpt: 4. Ulcer-Inducing Effect on rats [methodology according to W. J. R. Whittle, Brit. J. Pharmacol. 55, 242-3 (1975)].

granuloma = experiment: Granuloma Test (Cotton Pellet Test); assay type: in vivo, rat
Excerpt: 2. Granuloma Test (Cotton Pellet Test) [methodology as per R. Meier et al., Experientia 6, 469 (1950)]

Adjuvans Arthritis = Adjuvans Arthritis Test, Rat, p.o.; assay type: in vivo; details: 0.1 mg/kg p.o.
Excerpt: 3. Adjuvans Arthritis Test, Rat, p.o. [methodology as per C. N. Pearson, Proc. Soc. Exp. Biol. 91, 95-101 (1956)].

Rat Paw Edema = Rat Paw Edema Test; assay type: in vivo
Excerpt: 1. Rat Paw Edema Test [methodology as per Hillebrecht, Arzneim.-Forsch (4), 607 (1954)].

SMILES	Ulcer-inducing effect (rats; 3.2 mg/kg per os)	Ulcer-inducing effect (rats; 5.6 mg/kg per os)	Ulcer-inducing effect (rats; 7.5 mg/kg per os)	Decrease in weight of granuloma (%) (granuloma; rat dose 0.1 mg/kg per os)	Decrease in weight of granuloma (%) (granuloma; rat dose 3.2 mg/kg per os)	Inhibiting effect (%) (Adjuvans Arthritis; 14th day p.i.)	Inhibiting effect (%) (Adjuvans Arthritis; 17th day p.i.)	Inhibiting effect (%) (Rat Paw Edema; 3.2 mg/kg per os)	Inhibiting effect (%) (Rat Paw Edema; 5.6 mg/kg per os)	Ulcer-inducing effect (rats; in vivo, 1 mg/kg)	Ulcer-inducing effect (rats; in vivo, 10 mg/kg)	Ulcer-inducing effect (rats; in vivo, 100 mg/kg)	Decrease in weight of granuloma (%) (granuloma; rat dose 1.0 mg/kg per os)	Inhibiting effect (%) (Rat Paw Edema; 0.1 mg/kg per os)	Inhibiting effect (%) (Rat Paw Edema; dose printed ".0" mg/kg per os)
COc1ccc2c(c1)c(CC(=O)O)c(C)n2C(=O)c1ccc(Cl)cc1 [Indomethacin, indomethacin]	++	+++	+++	-21	-27	-29	-37	-25	-45						
CCCCCC(=O)C=Cc1ccc(CCCCCCCCC(=O)OC)s1 [Example 5, 9-[5-(3-oxooct-1-enyl)thien-2-yl]nonanoic acid methyl ester]				-24		-28	-35			0	0	0	-13	-26	-38
